Patent US10207988B2, “Methods and compositions for treatment of cancer and autoimmune disease” (THE JACKSON LABORATORY, priority 2011, dated 2019)

Legend:
[1] = system: BXSB.Yaa Cd8/IL15−/− mice; assay: mouse systemic lupus erythematosus (SLE) model treated with DIDS; format: in vivo
Excerpt: BXSB.Yaa Cd8/IL15−/− mice are an established model for SLE. These mice display many characteristics of human SLE including hypergammaglobulinemia, circulating antinuclear antibodies and immune complex medicated glomerulonephritis, and ultimately succumb to disease around 24 weeks of age (Andrews et al. 1978, J Exp Med 148: 1198-215; Dixon et al. 1978, Arthritis Rheum 21: S64-7; Izui et al. 2000, Int Rev Immunol 19: 447-72). Genetic deletion of Cd8a and IL15 from the model results in a similar clinical phenotype which appears much early with survival averaging 14 weeks of age (McPhee et al. 2011, J Immunol 187:4695-4704)
Six week old male BXSB.Cg-Cd8a<tm1Mak> IL15<tm1Imx>/Dcr (abbreviated as BXSB.Yaa Cd8/IL15−/−) mice were retro-orbitally bled into heparin primed tubes to collect serum. 25 mg/kg (n=5) or 50 mg/kg DIDS (n=6) in 4% potassium bicarbonate with PBS or an equivalent volume of 4% potassium bicarbonate (n=2 and n=4) was administered intraperitoneally on day 0, and every seven days for five weeks. Mice were weighed weekly and serum was collected at 14 day intervals for a 5-week period. These mice were then aged for survival. The serum was analyzed by ELISA for IgG1 and IgG2b content. For the ELISA plates were coated with goat anti-mouse Ig (IgG1 or IgG2b) and incubated overnight at […] Plates were washed three times and P-nitrophenyl Phosphate (p-NPP, AMRESCO) was applied, incubated until standards developed adequately and read on a SpectraMax ELISA plate reader using SoftmaxPro software. Data are expressed as concentration of IgG (mg/ml) based on titration of isotype-specific purified mouse standards. […] Survival data was analyzed using Graphpad Prism software and assessed for statistical significance using both the log-rank Mantel Cox with (FIG. 20A for the 25 mg/kg group with a p value of 0.4289 and FIG. 20B for the 50 mg/kg group with a p value of 0.3698) and Gehan-Breslow-Wilcoxan tests (FIG. 21A for the 25 mg/kg group with a p value of 0.7003 and FIG. 21B for the 50 mg/kg group with a p value of 0.7505).

[2] = system: AID+/+ (C57BL/6) or AID−/− mice; assay: systemic DIDS treatment of DNP-KLH immunized mice; format: in vivo
Procedure: To test the in vivo effectiveness of DIDS, either AID+/+ (C57BL/6) or AID−/− mice (Muramatsu et al. et al., 2000 supra) were administered DIDS (10 mg/kg or 50 mg/kg) at weekly intervals, immunized at weeks 1 with dinitrophenol conjugated Keyhole limpet hemocyanin (DNP-KLH) in complete Freund's adjuvant (CFA) to stimulate lymphocyte activation, and boosted after 4 weeks with DNP-KLH (in incomplete Freund's adjuvant, IFA). After a total of 7 weeks (FIG. 25A) mice were euthanized. The group size was n=5. […] For this the mice were weighed weekly and the data represent the average fractional change in body mass for five animals, and error bars denote S.E.M.
After the 7-week trial window, tissues from treated and control animals were fixed, sectioned, and analyzed after hematoxylin and eosin (H&E) staining. […] To determine whether DIDS induced a B-cell specific phenotype related to AID, bone marrow, spleen, and peripheral blood, from DIDS-treated AID+/+ versus AID−/− mice, were analyzed for the presence of B220+CD19+ B-cells, by flow cytometry (FIG. 26). […] In FIG. 26 the endpoint flow cytometry dot plot analysis of bone marrow, spleen, and peripheral blood from AID−/− and AID+/+ mice immunized with DNP-KLH and treated with 0, 10, or 50 mg/kg DIDS is shown. Plots represent the population of cells in the lymphocyte gate stained for expression of B220 (y-axis) and CD19 (x-axis). The numbers in the upper right corner of each plot provide the percentage of B220+/CD19+ cells for each analysis. The progression of B-cell maturation from early/pre-GC to post-GC is indicated below.

[3] = system: primary wild-type mouse splenocytes; assay: radiosensitivity of primary splenocytes after exposure to DIDS (cell counts after 2.5 Gy); format: cell-based; details: Splenocyte, light or radiation study, 36 h, read-out: reduction in viability
Procedure: To validate DIDS as a potential agent, and to confirm its DSB repair inhibitory activity, radiosensitivity of primary wild-type mouse splenocytes was measured after exposure to DIDS. A total of 2×10^6 splenocytes were suspended in medium with 0, 300 μM, 600 μM or 1000 μM DIDS, or in vehicle-only control, and immediately given 2.5 Gy ionizing irradiation using a ^137Cs irradiator (Shepard). Cells were then cultured in medium containing the same DIDS concentration, and cell counts were determined after 36 hours recovery time.

[4] = system: primary mouse splenic B-cells (B220+ IgM+); assay: radiosensitization of primary mouse B-cells by DIDS (Trypan blue dye exclusion); format: cell-based; details: 2.5 Gy gamma irradiation combined with DIDS, starting at 50 micromolar, 24 hours after irradiation
Procedure: Primary mouse splenic B-cells were isolated from normal, wild-type C57BL/6J mice as described in Example 1 and sorted with magnetic beads (Miltenyi) to enrich B220+ IgM+ B-cells. Purified B-cells were cultured in complete RPMI-1640 medium with 10% FBS with 0, 50, 100, or 150 micromolar DIDS. Cells were then subjected to either 0 (FIG. 14, filled circles) or 2.5 Gy (=250 rads; FIG. 14, open circles) of gamma irradiation in a Cs137 irradiator. Cell viability was subsequently scored for each condition and plotted relative to the no DIDS condition by manual cytometry using a hemacytometer and Trypan blue dye exclusion 24 hours after irradiation. The fraction of viable cells is reported normalized to the corresponding 0 μM DIDS condition. Error bars represent the standard error of the mean (S.E.M) from three independent experiments.

O=S(=O)([O-])c1cc(N=C=S)ccc1/C=C/c1ccc(N=C=S)cc1S(=O)(=O)[O-].[Na+].[Na+] [DIDS, 4,4′diisothiocyanostilbene-2,2′-disulfonic acid]
IgG2b serum content (ELISA) ([1]; 25 mg/kg DIDS intraperitoneally every seven days): striking decrease | body weight ([1]; 25 mg/kg DIDS intraperitoneally every seven days for five weeks, versus controls): no weight difference | IgG1 serum content (ELISA) ([1]; DIDS intraperitoneally every seven days): No significant difference | weight gain (fractional change in body mass) ([2]; 0 mg/kg control and 50 mg/kg cohorts, after 5 weeks): independent of DIDS exposure | overt signs of toxicity ([2]; 10 mg/kg or 50 mg/kg DIDS at weekly intervals, 7 weeks): No animals in either the control or DIDS-treated groups showed overt signs of toxicity | overt non-B-cell toxicity ([2]; AID+/+ or AID−/− cohort): none of the DIDS treated animals | percentages of splenic B-cells (flow cytometry) ([2]; AID+/+ or AID−/− mice): no consistent differences | toxicity / splenic physiology ([2]; at least up to 50 mg/kg, AID+/+ or AID−/− mice): does not induce significant toxicity or general defects in splenic physiology | reduction in circulating B-lymphoid cells (flow cytometry) ([2]; both 10 mg/kg and 50 mg/kg DIDS, AID+/+ mice): 9-11 fold | reduction in B220+CD19+ B-cells in the bone marrow (flow cytometry) ([2]; both 10 mg/kg and 50 mg/kg treated AID+/+ mice): 25% | spleen sections, H&E staining ([2]; untreated versus DIDS-treated animals, after 7 weeks): no gross anatomical defects or differences in germinal center (GC) architecture | cytotoxicity at 600 µM [3]: ~25% | cytotoxicity at 1000 µM [3]: 87% | fraction of viable cells [4]: reduces viability significantly
